One experiment relates to IL-10. Kind of experiment: IL-10 mRNA expression in LPS-treated hMADS derived adipocytes (real-time PCR). The class given is cell-based, human. The conditions noted are these: butyric acid 10^−4M, hexanoic acid 10^−5M, 24 h then 5 ug/mL LPS 24 h, relative to LPS without short chain fatty acids, FIG. 10. (Real-time PCR tracks product formation cycle by cycle.)
The next experiment concerns IL-6. Kind of experiment: IL-6 production by LPS-treated hMADS adipocytes (ECL immunoassay). The class given is cell-based, human. The conditions noted are these: fatty acid 10-4 to 10-9 mol 24 h then 5 ug/mL LPS 24 h, versus LPS only, all tested concentrations, FIG. 8/9.

Procedure for IL-10: In the experiment, adipose tissue-derived stem cells were pre-treated with butyric acid, caproic acid, and a combination thereof after which lipopolysaccharide (LPS) was added to induce (low-grade) inflammation. […] Pooled human multipotent adipose tissue-derived stem cells (hMADS), were differentiated into the adipogenic lineage, creating a human white adipocyte model. hMADS cells were derived from male human donors with a large range in BMI (20-40 kg/m2) and glucometabolic status, and age between 35 and 70 years of age. Cells were seeded at a density of 2,000 cells/cm2 and kept in proliferation medium containing Dulbecco's modified Eagle's medium (DMEM), Ham's F-12 Nutrient Mixture (Gibco, Bleiswijk, Netherlands), 10% fetal bovine serum (Bodinco BV, Alkmaar, NL, Netherlands), 50 U/ml penicillin (Gibco), and 50 μg/ml of streptomycin (Gibco)]. At 70-80% confluence, 250 μmol/L IBMX (Sigma, St. Louis, MI, USA) and 5 μmol/L rosiglitazone (Enzo Life Sciences, Raamsdonksveer, Netherlands) were added to induce adipogenic differentiation. Experiments were carried out between days 12 and 14 of the differentiation. To study the effect of butyric acid (10^-4M) and hexanoic acid (10^-5M) on the expression of the anti-inflammatory cytokine IL-10, hMADS derived adipocytes were incubated with butyric acid, hexanoic acid or the combination thereof. […]
Procedure for IL-6: An experiment was carried out to ascertain the extent to which butyric acid and caproic acid effect the production of the proinflammatory cytokine IL-6 in an inflammatory condition.
Pooled human multipotent adipose tissue-derived stem cells (hMADS), were differentiated into the adipogenic lineage, creating a human white adipocyte model. hMADS cells were derived from male human donors with a large range in BMI (20-40 kg/m2) and glucometabolic status, and age between 35 and 70 years of age. Cells were seeded at a density of 2,000 cells/cm2 and kept in a proliferation medium containing Dulbecco's modified Eagle's medium (DMEM), Ham's F-12 Nutrient Mixture (Gibco, Bleiswijk, Netherlands), 10% fetal bovine serum (Bodinco BV, Alkmaar, NL, Netherlands), 50 U/ml penicillin (Gibco), and 50 μg/ml of streptomycin (Gibco)].
At 70-80% confluence, 250 μmol/L IBMX (Sigma, St. Louis, MI, USA) and 5 μmol/L rosiglitazone (Enzo Life Sciences, Raamsdonksveer, Netherlands) were added to induce adipogenic differentiation. Experiments were carried out between days 12 and 14 of the differentiation. […]
IL-6 cytokine levels in the culture supernatant were evaluated using a electrochemiluminescence (ECL) immunoassay (MSD; Rockville, Maryland) according to the manufacturers protocol. […]

For `CCCC(=O)O` [butyric acid], in the experiment with IL-10, the “expression of IL-10 (mRNA)” value is on record as “small increase”. In addition, the “concentration of IL-6” value in the experiment on IL-6 is listed as “lower”.
In the same order, the values of `CCCCCC(=O)O` [hexanoic acid] are “small increase” and “lower”.
